The record followed here is patent US7115642B2, “Substituted diphenyl isoxazoles, pyrazoles and oxadiazoles useful for treating HCV infection” (priority 2003, dated 2006).

The test system of data set [1] is HCV replicon (5-2 Luc replicon-comprising cells). Briefly: HCV replicon assay (luciferase). The format is cell-based, Hepatitis C virus. The note with it: 5-2 Luc replicon cells, luciferase readout, read-out: Replicon IC50. The procedure, abridged:
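Huh7-derived 5-2 Luc replicon cells seeded 24 h at 37 °C, then exposed to compound at various concentrations for another 24 h. Luciferase quantified by Bright-Glo luminescence; IC50 = concentration giving 50% reduction in luciferase activity; reported as +/− at a 10 μM cut-off.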
(In antiviral work, replicon cells carry a viral genome segment that copies itself.)

Data set [2] relates to HCV nonstructural protein NS5A or NS3 in 9–13 replicon cells. Briefly: Quantitative Western blot assay. The note with it: 9–13 replicon cells, NS5A or NS3 Western blot, read-out: Western IC50. Format: cell-based, Hepatitis C virus. Here is the method:
Alternatively, the inhibitory activity of the compounds can be confirmed using a quantitative Western immunoblot assay utilizing antibodies specific for HCV non-structural proteins, such as NS3, NS4A NS5A and NS5B. In one embodiment of this assay, replicon cells are treated with varying concentrations of test compound to determine the concentration of test compound that yields a 50% reduction in the amount of a non-structural protein produced as compared to a control sample (IC50). A single non-structural protein may be quantified or multiple non-structural proteins may be quantified. Antibodies suitable for carrying out such immunoblot assays are available commercially (e.g., from BIODESIGN International, Saco, Me.).
Certain exemplary compounds of the invention were also tested for their ability to inhibit HCV replication using a quantitative Western blot analysis with antibodies specific for the HCV nonstructural protein NS5A or NS3. Actively dividing 9–13 replicon cells were seeded into Swell plates at a density of 1×10^5 cells/well in a volume of 2 ml/well and incubated at 37° C. and 5% CO2 for 24 hours. Various concentrations of test compounds (in a volume of 10 ul) were added to the wells and the cells incubated for another 48 hours. Protein samples were prepared from the cultured cells, resolved on a SDS-PAGE gel and transferred to a nitrocellulose membrane. The membrane was blocked with 5% non-fat milk in PBS for 1 hour at room temperature. Primary antibody (anti NS5A antibody; BIODESIGN International, Saco, Me. or anti NS3 antibody, Rigel) incubation was performed for 1 hour at room temperature, after which the membrane was washed 3 times (for 15 min per time) with PBST (PBS plus 0.1% Tween 20). Horseradish peroxidase conjugated secondary antibody incubation was performed for 1 hour at room temperature and the membrane was washed 3 times (for 15 min per time) with PBST. The membrane was then soaked in substrate solution (Pierce) and exposed to a film or quantified using an imager. In this assay, the amount of test compound that yielded a 50% reduction in the amount of NS5A or NS3 protein translated as compared to a control sample (IC50) was determined.
In TABLE 1, a value of “+” indicates an IC50 of 10 μM or less in the specified assay; a value of “−” indicates an IC50 of greater than 10 μM in the specified assay.
(In western blotting, separated proteins are transferred to a membrane and probed.)

Data set [3] in a line: Cytotoxicity assay (Cell Titer Glo). As to conditions: human; 48 hr with compound, ATP-dependent Cell Titer Glo assay; read-out: IC50 in cytotoxicity assay (number of viable cells). Format: cell-based. Here is the method:
Compounds 67, 167, 169, 13, 1, 145, 29, 119, 63, 31, 39, 103, 123, 121, 97, 129, 79, 111, 85, 89, 109, 127, 131, 95, 47, 57, 69, 165, 161, 163, 3, 137, 15, 141, 41, 53, 33, 113, 93, 105, 77, 91, 81, 83, 35, 27, 65, 7, 135, 51, 139, 51, 49, 143, 5, 149, 11, 37, 21, 45, 61, 75, 23, 125, 73, 43, 171 and 101 were tested in a cytotoxicity assay with liver cells including an HCV replicon (5-2 Luc cells, 9–13 cells or Huh-7 cells). In the assay, cells were seeded onto 96-well plates (approx. 7500 cells/well in a volume of 90 μl) and grown for 24 hr at 37° C. On day 2, various concentrations of test compound (in a volume of 10 μl) were added to the wells and the cells were grown for an additional 48 hr at 37° C. On day 4, an ATP-dependent R-Luciferase assay (Cell Titer Glo assay) was performed to determine the number of viable cells.
(In general: ATP-based viability assays read luminescence as a measure of living cells.)

Like-named read-outs stand apart in the source and are kept apart here.

`COC(=O)c1ccc(Cl)c(-c2cc(-c3cccc(NC(=O)C(Cl)Cl)c3)on2)c1Cl` [Compound 135, 2,2-Dichloro-N-[3-[3-(3-carbomethoxy-2,6-dichlorophenyl)-5-isoxazolyl]phenyl]Acetamide]: the IC50 in data set [1] (Hepatitis C virus) and in data set [2] (Hepatitis C virus) was greater than 10 µM throughout. The IC50 at 48 h in data set [3] is greater than 10 µM. On to `Cc1oc(=O)oc1COC(=O)c1cccc(Cl)c1-c1cc(-c2cccc(NC(=O)C(Cl)Cl)c2)on1` [Compound 707], for which the IC50 in data set [1] and in data set [2] was less than 10 µM throughout. For `O=C(O)c1cccc(F)c1-c1cc(-c2cccc(NC(=O)C(Cl)Cl)c2)on1` [Compound 703], the half-inhibitory concentration (IC50) in data set [1] and in data set [2] was greater than 10 µM in each case. Take `CN(C)C(=O)NC1CCN(c2cccc(Cl)c2-c2cc(-c3cccc(NC(=O)C(Cl)Cl)c3)on2)C1` (stereo not drawn) [Compound 676]: the IC50 in data set [1] and in data set [2] was less than 10 µM each time. For the compound `CC(C)(C)OC(=O)NC1CCN(c2cccc(Cl)c2-c2cc(-c3cccc(NC(=O)C(Cl)Cl)c3)on2)C1` (stereo not drawn) [Compound 671], the IC50 in data set [1] and in data set [2] was less than 10 µM in each case.

With `CC(C)(C)OC(=O)c1cccc(F)c1-c1cc(-c2cccc(NC(=O)C(Cl)Cl)c2)on1` [Compound 701], the IC50 in data set [1] and in data set [2] was less than 10 µM throughout. For `O=C(Nc1cccc(-c2cc(-c3c(Cl)cccc3OC3CCCC3)no2)c1)C(Cl)Cl` [Compound 699], the IC50 in data set [1] and in data set [2] was less than 10 µM each time.

Consider `COc1cccc(C(=O)OC(C)(C)C)c1-c1cc(-c2cccc(NC(=O)C(Cl)Cl)c2)on1` [Compound 700], for which the IC50 in data set [1] was less than 10 µM; in data set [2] it was greater than 10 µM. As for `O=C(Nc1cccc(-c2cc(-c3c(F)cccc3S(=O)(=O)N3CCOCC3)no2)c1)C(Cl)Cl` [Compound 21, 2,2-Dichloro-N-[3-[3-[2-fluoro-(6-N-morpholinosulfamoyl)phenyl]-5-isoxazolyl]-phenyl]Acetamide], the IC50 in data set [1] and in data set [2] was less than 10 µM in each case. Take `CC(C)Oc1cccc(Cl)c1-c1cc(-c2cccc(NC(=O)C(Cl)Cl)c2)on1` [Compound 706]: the IC50 in data set [1] and in data set [2] was less than 10 µM in each case. As to `NC1CCN(c2cccc(Cl)c2-c2cc(-c3cccc(NC(=O)C(Cl)Cl)c3)on2)C1` (stereo not drawn) [Compound 674], the IC50 in data set [1] and in data set [2] was less than 10 µM in each case.

Take `COC(=O)c1cccc(Cl)c1-c1cc(-c2cccc(NC(=O)C(Cl)Cl)c2)on1` [Compound 680]: the IC50 in data set [1] and in data set [2] was less than 10 µM throughout. Take `COC(=O)[C@@H](NC(=O)c1cccc(Cl)c1-c1cc(-c2cccc(NC(=O)C(Cl)Cl)c2)on1)C(C)C` [Compound 695]: the IC50 was greater than 10 µM in data set [1] and less than 10 µM in data set [2].

For `O=C(Nc1cccc(-c2cc(-c3c(Cl)cccc3OCC3CC3)no2)c1)C(Cl)Cl` [Compound 709], the IC50 in data set [1] and in data set [2] was less than 10 µM each time. For `COc1cccc(C(=O)O)c1-c1cc(-c2cccc(NC(=O)C(Cl)Cl)c2)on1` [Compound 702], the half-maximal inhibitory concentration (IC50) in data set [1] is greater than 10 µM; in data set [2], less than 10 µM. Turning to `O=C(Nc1cccc(-c2cc(-c3c(Cl)cccc3N3CCOCC3)no2)c1)C(Cl)Cl` [Compound 7, 2,2-Dichloro-N-[3-[3-[2-chloro-6-(N-morpholino)phenyl]-5-isoxazolyl]phenyl]Acetamide], the IC50 in data set [2] is less than 10 µM.

For `NC1CCN(c2cccc(Cl)c2-c2cc(-c3cccc(NC(=O)C(Cl)Cl)c3)on2)C1` (stereo not drawn) [Compound 673], the IC50 in data set [2] is less than 10 µM. In the case of `O=C(Nc1cccc(-c2cc(-c3c(Cl)cccc3C(=O)N3CCN(Cc4ccccc4)CC3)no2)c1)C(Cl)Cl` [Compound 697], the figures for the IC50 in data set [1] and in data set [2] were greater than 10 µM and less than 10 µM, respectively. Regarding `O=C(Nc1cccc(-c2cc(-c3c(N4CCOCC4)cccc3C(F)(F)F)no2)c1)C(Cl)Cl` [Compound 37, 2,2-Dichloro-N-[3-[3-[2-(N-morpholino)-6-trifluoromethylphenyl)-5-isoxazolyl]phenyl]Acetamide], the half-maximal inhibitory concentration (IC50) in data set [1] and in data set [2] was less than 10 µM throughout. For the compound `O=C(Nc1cccc(-c2cc(-c3c(Cl)cccc3C(=O)N3CCOCC3)no2)c1)C(Cl)Cl` [Compound 689], the IC50 in data set [2] is less than 10 µM.

Turning to `Cc1ccc(C(=O)N2CCN(c3cccc(Cl)c3-c3cc(-c4cccc(NC(=O)C(Cl)Cl)c4)on3)CC2)cc1` [Compound 665], the IC50 in data set [1] and in data set [2] was less than 10 µM each time. For the compound `CN(C)C(=O)c1cccc(Cl)c1-c1cc(-c2cccc(NC(=O)C(Cl)Cl)c2)on1` [Compound 692], the IC50 in data set [1] and in data set [2] was less than 10 µM each time. On to `CS(=O)(=O)NC1CCN(c2cccc(Cl)c2-c2cc(-c3cccc(NC(=O)C(Cl)Cl)c3)on2)C1` (stereo not drawn) [Compound 682], for which the IC50 in data set [2] was less than 10 µM.

On to `O=C(NCc1ccccn1)c1cccc(Cl)c1-c1cc(-c2cccc(NC(=O)C(Cl)Cl)c2)on1` [Compound 694], for which the IC50 in data set [1] and in data set [2] was less than 10 µM each time. For `COC(=O)c1cccc(F)c1-c1cc(-c2cccc(NC(=O)C(Cl)Cl)c2)on1` [Compound 705], the IC50 in data set [1] and in data set [2] was less than 10 µM each time. `CC(C)(C)OC(=O)N1CCN(C(=O)c2cccc(Cl)c2-c2cc(-c3cccc(NC(=O)C(Cl)Cl)c3)on2)CC1` [Compound 698]: the values for the IC50 in data set [1] and in data set [2] were greater than 10 µM and less than 10 µM, respectively.

Consider `O=C(Nc1cccc(-c2cc(-c3c(Cl)cccc3C(=O)N3CCN(c4ccccc4)CC3)no2)c1)C(Cl)Cl` [Compound 690], for which the IC50 in data set [1] and in data set [2] was less than 10 µM in each case. As for `COC(=O)C(NC(=O)c1cccc(Cl)c1-c1cc(-c2cccc(NC(=O)C(Cl)Cl)c2)on1)C(C)C` (stereo not drawn) [Compound 696], the IC50 in data set [1] and in data set [2] was less than 10 µM in each case. Consider `O=C(Nc1cccc(-c2cc(-c3c(Cl)cc(OCCN4CCOCC4)cc3Cl)no2)c1)C(Cl)Cl` [Compound 75, 2,2-Dichloro-N-[3-[3-[2,6-dichloro 4-(N-morpholinoethyleneoxy)phenyl]-5-isoxazolyl]-phenyl]Acetamide], for which the IC50 is greater than 10 µM in data set [1] and less than 10 µM in data set [2]. On the same counts, the results for `O=C(Nc1cccc(-c2cc(-c3c(Cl)cccc3OC(F)F)no2)c1)C(Cl)Cl` [Compound 710] are less than 10 µM and less than 10 µM. As to `COC(=O)c1cccc(OC)c1-c1cc(-c2cccc(NC(=O)C(Cl)Cl)c2)on1` [Compound 704], the IC50 in data set [1] and in data set [2] was greater than 10 µM each time. With `CSc1cccc(F)c1-c1cc(-c2cccc(NC(=O)C(Cl)Cl)c2)on1` [Compound 11, 2,2-Dichloro-N-[3-[3-(2-fluoro-6-thiomethylphenyl)-5-isoxazolyl]phenyl]Acetamide], the IC50 in data set [1] and in data set [2] was less than 10 µM each time.

Consider `CN(C)C(=O)NC1CCN(c2cccc(Cl)c2-c2cc(-c3cccc(NC(=O)C(Cl)Cl)c3)on2)C1` (stereo not drawn) [Compound 675], for which the IC50 in data set [2] was less than 10 µM.

Turning to `CCOc1cccc(Cl)c1-c1cc(-c2cccc(NC(=O)C(Cl)Cl)c2)on1` [Compound 708], the IC50 in data set [1] and in data set [2] was less than 10 µM each time.

With `CC(C)(C)OC(=O)NC1CCN(c2cccc(Cl)c2-c2cc(-c3cccc(NC(=O)C(Cl)Cl)c3)on2)C1` (stereo not drawn) [Compound 672], the IC50 in data set [1] and in data set [2] was less than 10 µM throughout.

The term IC50 denotes the concentration at which inhibition is half-maximal.
